Experimental data: US20260226034A1 (The Rockefeller University, priority 2023, published 2026)

Each molecule was assayed against NSP14 (Severe acute respiratory syndrome coronavirus 2, UniProt P0DTD1) (assay: NSP14 MTase inhibition assay at 37° C. (MTase-Glo SAH detection)). Settings: 0.3 nM NSP14, 2.5 μM SAM, 2.5 μM GpppA RNA, 45 min at 37° C.; read-out: Nsp14 Mtase Inh. IC50.
Assay type: biochemical, SARS-CoV-2
Procedure: NSP14 MTase assay at 37° C. (0.3 nM NSP14 as final enzyme concentration)
The NSP14 MTase assay at 37° C. is carried out in 384-well flat bottom polystyrene microplates (Greiner, 781075). Per well, 10 μl of 1×NSP14 reaction buffer (50 mM Tris-HCl, pH 7.5, 6 mM KCl, 1.25 mM MgCl2, 1 mM DTT, and 0.01% Tween-20) are dispensed in columns 1-23 using a Thermo Multidrop Combi dispenser (Thermo Scientific). 0.1 μl of serially diluted compounds in DMSO are dispensed into columns 1-22 of the assay microplates with a Janus 384 MDT NanoHead (PerkinElmer). In wells of column 23, which serve as negative controls, no compounds are added.
The NSP14 reaction is started by adding 4 μl of a 4× substrate solution containing S-adenosyl methionine (SAM, 10 μM) and GpppA RNA (10 μM) prepared in 1×NSP14 reaction buffer. Any addition of reagents is followed by a 30 second centrifugation at 500×g to ensure that all liquid was collected at the bottom of the well. The final concentrations of NSP14, SAM, and GpppA RNA are 0.3 nM, 2.5 μM, and 2.5 μM, respectively. The final reaction volume is 16 μl. Plates are sealed and incubated for 45 min at 37° C.
For SAH detection, 1 μl 5× MTase-Glo™ Reagent (Promega) is added to each well, plates are mixed for 1-2 minutes and incubated at room temperature for 30 minutes. 5 μl of room-temperature MTase-Glo™ Detection Solution (Promega) is added to each well, plates are mixed for 1-2 minutes and incubated at room temperature for 30 minutes. Luminescence signals of each well are recorded in relative light units (RLUs) using a Biotek Synergy Neo plate reader (BioTek, Winooski, VT). The SAH production is normalized against the positive control (PK, column 24) and negative control (NK, column 23) as follows: normalized % inhibition=100×(RLUsample-RLUaverageNK)/(RLUaveragePK-RLUaverageNK).

SMILES	IC50 [nM]
Cc1c(S(=O)(=O)c2ccc3[nH]ncc3c2)cc(C(=O)NC2(CO)CCN(c3ncc(F)cn3)C2)n1C (single isomer, unassigned) [A.116, 4-((1H-indazol-5-yl)sulfonyl)-N-(1-(5-fluoropyrimidin-2-yl)-3-(hydroxymethyl)pyrrolidin-3-yl)-1,5-dimethyl-1H-pyrrole-2-carboxamide]	44
Cc1c(S(=O)(=O)c2ccc3[nH]ncc3c2)cc(C(=O)N[C@@H]2CCN(c3ncc(F)cn3)C2)n1C [A.34, N-[(3R)-1-(5-fluoropyrimidin-2-yl)pyrrolidin-3-yl]-4-(1H-indazol-5-ylsulfonyl)-1,5-dimethyl-pyrrole-2-carboxamide]	0.17
Cc1c(S(=O)(=O)c2ccc3[nH]ncc3c2)cc(C(=O)N[C@@H]2CCN(c3cccc(C#N)c3)C2)n1C [A.84]	< 0.15
Cc1c(S(=O)(=O)c2ccccc2)cc(C(=O)NCc2cccc3cnn(C)c23)n1C [A.16]	15
Cc1c(S(=O)(=O)c2ccc3[nH]ncc3c2)cc(C(=O)N[C@@H]2CCN(c3ccccc3OC(F)(F)F)C2)n1C [A.85]	27
Cc1c(S(=O)(=O)c2ccc3[nH]ncc3c2)cc(C(=O)N[C@@H]2CCN(c3ccn4nccc4c3)C2)n1C [A.60]	0.28
Cc1c(S(=O)(=O)c2ccc3[nH]ncc3c2)cc(C(=O)N[C@@H]2CCN(c3ccnnc3)C2)n1C [A.78]	0.53
Cc1c(S(=O)(=NCCO)c2ccc3[nH]ncc3c2)cc(C(=O)N[C@@H]2CCN(c3ncc(F)cn3)C2)n1C (some centres unmarked) [A.102]	0.46
Cc1c(S(=O)(=O)c2ccc3[nH]ncc3c2)cc(C(=O)NC2CN(c3ncc(F)cn3)C2)n1C [A.36]	2.2
Cc1c(S(=O)(=O)c2ccc3[nH]ncc3c2)cc(C(=O)N[C@@H]2CCN(c3nccc(C#N)n3)C2)n1C [A.45]	0.37
Cc1c(S(=O)(=O)c2ccc3occc3c2)cc(C(=O)NCc2c(F)ccc3occc23)n1C [A.14]	7.7
Cc1c(S(=O)(=O)c2ccc3c(cnn3C)c2)cc(C(=O)NCc2cccc3cnn(C)c23)n1C [A.12]	5.6
Cc1c(S(=O)(=O)c2cc(C#N)c3[nH]ncc3c2)cc(C(=O)N[C@@H]2CCN(c3ncc(F)cn3)C2)n1C [A.63]	0.46
Cc1c(S(=O)(=O)c2cc(F)c3[nH]nc(F)c3c2)cc(C(=O)N[C@@H]2CCN(c3ncc(F)cn3)C2)n1C [A.67]	0.38
Cc1c(S(=O)(=O)c2ccc3[nH]ncc3c2)cc(C(=O)N[C@@H]2CCN(c3cccc4ccnn34)C2)n1C [A.55]	0.9
Cc1c(S(=O)(=O)c2ccc3[nH]ncc3c2)cc(C(=O)N[C@@H]2CCN(c3cccc(C(F)(F)F)c3)C2)n1C [A.100]	2.9
Cc1c(S(=O)(=O)c2ccc3[nH]ncc3c2)cc(C(=O)N[C@@H]2CCN(c3ccc(Cl)cn3)C2)n1C [A.44]	< 0.15
Cc1c(S(=O)(=O)c2ccc3[nH]ncc3c2)cc(C(=O)N[C@@H]2CCN(c3cc(F)cc(F)c3)C2)n1C [A.96]	0.85
Cc1c(S(=O)(=O)c2ccc3[nH]ncc3c2)cc(C(=O)N[C@@H]2CCN(c3cccn4nccc34)C2)n1C [A.59]	0.18
COc1ccc(S(=O)(=O)c2cc(C(=O)NCc3cccc4cnn(C)c34)n(C)c2C)cn1 [A.28]	119

Same assay, conditions: 37° C., 0.3 nM NSP14, 2.5 μM SAM, 2.5 μM GpppA RNA; read-out: Nsp14 Mtase Inh. IC50

SMILES	IC50 [nM]
Cc1c(S(=O)(=O)c2ccc3[nH]nc(F)c3c2)cc(C(=O)NCc2c(F)ccc3ncn(C4CC4)c23)n1C [B.103]	< 0.15
Cc1c(S(=O)(=O)c2ccc3[nH]ncc3c2)cc(C(=O)NC2CCc3c(F)ccc(F)c32)n1C (racemic) [B.70]	0.95
CN=S(=O)(NC(=O)c1cc(S(=O)(=O)c2ccc3[nH]ncc3c2)c(C)n1C)c1ccccc1 (racemic) [B.135, 4-(1H-indazol-5-ylsulfonyl)-1,5-dimethyl-N—(N-methyl-S-phenyl-sulfonimidoyl)pyrrole-2-carboxamide]	19
Cc1c(S(=O)(=O)c2cnc3[nH]ncc3c2)cc(C(=O)NCc2cccc3cnn(C)c23)n1C [B.30]	4.6
Cc1cc[nH]c(=O)c1CNC(=O)c1cc(S(=O)(=O)c2ccc3[nH]ncc3c2)c(C)n1C [B.116]	4.6
Cc1c(S(=O)(=O)c2cc(C3CC3)c3[nH]ncc3c2)cc(C(=O)NCc2cccc3cnn(C4CC4)c23)n1C [B.41]	50
Cc1c(S(=O)(=O)c2cc(F)c3[nH]ncc3c2)cc(C(=O)N[C@@H](C)c2cccc3cnn(C4CC4)c23)n1C (single isomer, unassigned) [B.87]	0.82
Cc1c(S(=O)(=O)c2ccc3[nH]ncc3c2)cc(C(=O)NC2Cc3ccccc32)n1C (centres unmarked) [B.120]	1.2
Cc1c(S(=O)(=O)c2ccc3[nH]ncc3c2)cc(C(=O)NCCCOc2ncc(F)cn2)n1C [B.196]	18
Cc1c(S(=O)(=O)c2cc(Cl)c3[nH]ncc3c2)cc(C(=O)NCc2c(Cl)cnn2C)n1C [B.184]	< 0.15
Cc1c(S(=O)(=O)c2ccc3[nH]nc(F)c3c2)cc(C(=O)NCc2c(F)ccc3c2N(C)C(=O)C3(F)F)n1C [B.105]	0.15
Cc1c(S(=O)(=O)c2ccc3ccc(C#N)cc3c2)cc(C(=O)NCc2c(F)ccc3cnn(C)c23)n1C [B.128]	0.93
Cc1c(S(=O)(=O)c2ccc3[nH]ncc3c2)cc(C(=O)NCc2cnn3ccccc23)n1C [B.163]	3
Cc1c(S(=O)(=O)c2ccc3[nH]nc(C#N)c3c2)cc(C(=O)NCc2cccc3cnn(C)c23)n1C [B.29]	138
Cc1c(S(=O)(=O)c2cccc(C#N)c2)cc(C(=O)NCc2cccc3ncn(C)c23)n1C [B.4]	4.9
Cc1c(S(=O)(=O)c2ccc3[nH]ncc3c2)cc(C(=O)NCc2c(F)cc[nH]c2=O)n1C [B.113]	0.34
Cc1c(S(=O)(=O)c2ccc3[nH]ncc3c2)cc(C(=O)NCc2[nH]c(=O)ccc2F)n1C [B.189]	0.37
Cc1c(S(=O)(=O)c2ccc3[nH]ncc3c2)cc(C(=O)NCc2cnc3ccccn23)n1C [B.138]	6.3
Cc1c(S(=O)(=O)c2ccc3[nH]ncc3c2)cc(C(=O)NCc2c(F)cnn2C)n1C [B.154]	0.56
Cc1c(S(=O)(=O)c2ccc3[nH]ncc3c2)cc(C(=O)NC2CCc3cccc(F)c32)n1C (racemic) [B.110]	0.38
Cc1c(S(=O)(=O)c2ccc3c(=O)[nH]cnc3c2)cc(C(=O)NCc2cccc3cnn(C)c23)n1C [B.8]	71
Cc1c(S(=O)(=O)c2cc(C(F)F)c3[nH]ncc3c2)cc(C(=O)NCc2cccc3cnn(C4CC4)c23)n1C [B.60]	5.3
Cc1c(S(=O)(=O)c2cc(F)c3[nH]ncc3c2)cc(C(=O)NCc2c(F)ccc3ncn(C4CC4)c23)n1C [B.102]	< 0.15
Cc1c(S(=O)(=O)c2ccc3[nH]nc(F)c3c2)cc(C(=O)NCc2c[nH]c(=O)c3ccccc23)n1C [B.95]	2.2
Cc1cc(CNC(=O)c2cc(S(=O)(=O)c3ccc4[nH]ncc4c3)c(C)n2C)n(C)n1 [B.147]	145
Cc1c(S(=O)(=O)c2cnc3[nH]ncc3c2)cc(C(=O)NCc2cccc3cnn(C4CC4)c23)n1C [B.37]	10
Cc1c(S(=O)(=O)c2ccc3[nH]ncc3c2)cc(C(=O)NCc2ccnn2C)n1C [B.100]	12
Cc1c(S(=O)(=O)c2cccc(C#N)c2)cc(C(=O)NCc2cccc3cnn(C4CC4)c23)n1C [B.14]	23.1
Cc1c(S(=O)(=O)c2ccc3[nH]ncc3c2)cc(C(=O)NCc2c(F)ccc3nnn(C4CC4)c23)n1C [B.81]	< 0.15
Cc1c(S(=O)(=O)c2ccc3[nH]ncc3c2)cc(C(=O)N[C@H]2CCc3c(F)ccc(F)c32)n1C (single isomer, unassigned) [B.139]	1.3
